How the values were obtained:
Type in all cases: cell-based
[1] = tested on: human adult skin fibroblast; test: iPS cell colony induction using a lentivirus vector, Retronectin or polybrene (Example 31); details: 32nd day of culture
Procedure: According to the same manner as that of Example 1-(1), immobilization of Retronectin on a culture plate was carried out, provided that, as a plate to be coated with Retronectin, a non-treatment 12-well plate was used, and each 1 mL of a Retronectin solution (25 μg/mL) was added to each well.
Each 500 μL of each mixed virus solution prepared in Preparation Example 5 was added to a 12-well Retronectin immobilization culture plate, or a 12-well culture plate, and each 500 μL of human adult skin fibroblast suspended in 10F-DMEM to 1×10^5 cells/mL was further added to each well. Regarding polybrene infection condition, polybrene was added to a final concentration of 8 μg/mL. […] (day 0 of culturing).
On the sixth day of culture, according to the same manner as that of Example 5-(4), the gene-introduced cell was seeded on a feeder cell, and culturing was continued. […] During this, the medium was exchanged at 2 days interval.
In addition, regarding the condition A, the results of only one well are shown.

[2] = tested on: human adult skin fibroblast; test: iPS cell colony induction, standing infecting method, Retronectin versus Native fibronectin (Example 21); details: virus 10-fold dilution, standing infection, 27th day of culture, N=3
Procedure: Using a plate coated with Retronectin and a plate coated with Native fibronectin, gene transfer was carried out, and pluripotent stem cell induction was carried out. In addition, as the plate, a plate made in the following Example 21-(1), and a marketed product of a 35 mm petri dish coated with Retronectin in advance (T110A manufactured by TAKARA BIO INC.), and a marketed product of a 35 mm petri dish coated with Native fibronectin in advance (354457 manufactured by FALCON) were used.
According to the same manner as that of Example 1-(1), immobilization of Retronectin on a culture plate was carried out, provided that, as a culturing container, a non-treatment 35 mm petri dish (manufactured by IWAKI CO., LTD.) was used. In addition, petri dishes coated with Retronectin and Native fibronectin in advance which are marketed products (hereinafter, also described as Retronectin dish and fibronectin dish) were not subjected to these immobilization operations.
The virus solutions prepared in Preparation Example 2 were mixed at an equal amount in a combination of Table 27, and diluted 10-fold with 10F-DMEM, each 2 mL was added to the Retronectin-immobilized culturing petri dish prepared in Example 21-(1), or the petri dish coated with Retronectin or Native fibronectin in advance, and this was allowed to stand in a CO2 incubator at 32° C. for 4 to 6 hours. […]

human skin fibroblast = test: iPS cell colony induction with three genes OCT4, SOX2 and KLF4, Retronectin or polybrene (Example 11); details: OCT4, SOX2 and KLF4 only, 28th day of culture, N=2
Procedure: By limiting a gene to be introduced to three kinds of OCT4, SOX2 and KLF4, the same experiment as that of Example 10 was carried out.
According to the same manner as that of Example 10-(2), gene transfer was carried out, provided that, as the retrovirus vector, retrovirus vectors DON5-am-OCT4-IR-SOX2 and DON5-am-KLF4 prepared in Preparation Example 2 were used.
According to the same manner as that of Example 10-(4), the gene-introduced cell was seeded on a feeder cell, and culturing was continued.
Culturing was carried out according to the same manner as that of Example 10-(5).
In addition, the number in the Table indicates an average value of N=2.

[3] = tested on: mouse embryonic fibroblast; MEF; test: Efficiency of introducing a retrovirus vector into MEF, AcGFP1 positive cell rate (Example 23); details: four days after gene transfer
Procedure: An efficiency of introducing a gene into MEF using a retrovirus vector was compared between a Retronectin method and a polybrene method.
According to the same manner as that of Example 1-(1), immobilization of Retronectin on a culture plate was carried out, provided that, as a plate on which Retronectin is coated, a non-treatment 12-well plate (manufactured by Becton, Dickinson and Company) was used, and each 1 mL of a Retronectin solution (25 μg/mL) was added to each well.
According to the same manner as that of Example 19-(2) and (3), gene transfer was carried out. The retrovirus vector was prepared according to the same manner as that of Preparation Example 3, and DON-eco-AcGFP1 made using pE-Eco plasmid (manufactured by TAKARA BIO INC.) in place of pE-Ampho plasmid was used. Each of the prepared retrovirus vector as a stock solution, and solutions obtained by diluting the stock solution by each 10-fold to 100000-fold with 10F-DMEM was used for infection. In addition, as a target cell, MEF (manufactured by Millipore) was used.
On the next day of gene transfer, the medium was exchanged with 10F-DMEM.
Four days after a gene transfer operation, the cells were recovered, and an AcGFP1 positive cell rate was measured with a flow cytometer.

Substance: Retronectin: fragment of fibronectin having a heparin-II binding region (registered trademark, CH-296, TAKARA BIO INC.)
- number of a pluripotent stem cell (iPS cell) colony, Well 1 ([1]; 20-fold concentrated virus): 3
- number of a pluripotent stem cell (iPS cell) colony, Well 2 ([1]; 20-fold concentrated virus): 2
- number of a pluripotent stem cell (iPS cell) colony, Well 1 ([1]; virus without concentration): 5
- Number of iPS cell colonies ([2]; Condition A: DON5-am-OCT4-IR-SOX2, DON5-am-KLF4): 52.0
- Number of iPS cell colonies ([2]; Condition B: DON5-am-OCT4-IR-SOX2, DON5-am-LIN28-IR-NANOG, DON5-am-KLF4): 97.3
- Number of iPS cell colonies (human skin fibroblast; virus 10-fold dilution): 28.0
- Number of iPS cell colonies (human skin fibroblast; virus 100-fold dilution): 32.0
- Number of iPS cell colonies (human skin fibroblast; virus solution undiluted): 13.0
- Positive cell rate ([3]; Virus concentration 0.00001): 5.9%
- Positive cell rate ([3]; Virus concentration 0.0001): 15.3%
- Positive cell rate ([3]; Virus concentration 0.001): 41.3%
- Positive cell rate ([3]; Virus concentration 0.01): 64.6%
- Positive cell rate ([3]; Virus concentration 0.1): 80.3%
- Positive cell rate ([3]; Virus concentration 1.0): 84.1%
